Measured values: US20160058829A1, “ANTI-FIBROTIC PEPTIDES AND THEIR USE IN METHODS FOR TREATING DISEASES AND DISORDERS CHARACTERIZED BY FIBROSIS” (Thrasos Innovation, Inc., priority 2011, published 2016)
Positions of bridges follow the written chain, without caps; N, C: chain ends.

Experiments:
[1] = test system: COL4A3−/− mice; test: COL4A3 deficient mice (Alport syndrome model); format: in vivo
Description: FIG. 64a-FIG. 64N […] inhibits Renal Fibrosis in the COL4A3 Deficient mice. FIG. 64A-FIG. 64C. Representative histological PAS staining of glomeruli from 16 weeks old wild type (FIG. 64A); 16 weeks old COL4A3−/− (FIG. 64B), and 16 weeks old COL4A3−/− mice treated with THR-123 (FIG. 64C), original magnification ×400. D-F. Representative histological Masson's trichrome staining of kidneys from 16 weeks old wild type (FIG. 64D); 16 weeks old COL4A3−/− (FIG. 64E), and 16 weeks old COL4A3−/− mice treated with THR-123 (FIG. 64F), original magnification ×100. FIG. 64G-FIG. 64I. Morphometric analyses from 16 weeks old wild type (n=5), COL4A3−/− (n=5) and COL4A3−/− mice treated with THR-123 (n=5) assessing percent normal glomeruli (FIG. 64G), tubular damage index (FIG. 64H), relative interstitial volume (FIG. 64I). FIG. 64J. Blood urea nitrogen measurement for […] wild type (n=5), 16 weeks old COL4A3−/− (n=5) and COL4A3−/− mice treated with THR-123 (n=5). FIG. 64K-FIG. 64M. FSP1/E-cadherin immunolabeling of kidney. Representative results are shown. FIG. 64N. Percent of E-cadherin/FSP1double positive tubule, 500 tubules per slide, 5 slides per experimental group.
Eight weeks old COL4A3^−/− mice are treated either THR-123 (p.o. 5 mg/Kg/day) or vehicle. COL4A3^−/− mice are sacrificed at 16 weeks of age.
For morphometric analyses of percent normal glomeruli, 100 glomeruli were counted per slide from random fields of view, and five slides were counted per experimental group. The number of normal glomeruli was expressed as a percentage of the total number of glomeruli counted.

[2] = test system: mice with nephrotoxic serum nephritis; test: Nephrotoxic serum nephritis (NTN) in CD1 mice; format: in vivo
Description: FIG. 59A-FIG. 59M AA-123 Reverses Renal Fibrosis in Mice with Nephrotoxic Serum Nephritis. FIG. 59A-FIG. 59D. Representative Masson's trichrome staining picture of kidney sections from untreated control mice (FIG. 59A); 6 weeks NTN (FIG. 59B); 9 weeks post NTN (FIG. 59C); and 9 weeks NTN with THR-123 administered starting at 6 weeks NTN (FIG. 59D), Original magnification ×200. FIG. 59E-FIG. 59G. Morphometric analysis from control mice (0 weeks) (n=5), mice after 1 (n=6), 3 (n=8), and 6 weeks following induction of NTN (n=6), and mice at 9 weeks NTN with THR-123 administered starting 6 weeks NTN (THR-123 (6-9W) (n=6)), assessing percent of glomerulosclerosis score (FIG. 59E), tubular atrophy index (FIG. 59F), and fibrosis index (FIG. 59G). FIG. 59H. Blood Urea Nitrogen measurement for mice 6 weeks NTN (n=3), 9 weeks NTN (n=5), and 9 weeks NTN with THR-123 administered starting at 6 weeks NTN (n=5) FIG. 59I-FIG. 59L. E-cadherin/FSP1 immunolabeling of kidney from control untreated mice (FIG. 59I), 6 weeks NTN (FIG. 59J), 9 weeks NTN (FIG. 59K), and 9 weeks NTN with THR-123 administered starting at 6 weeks NTN (FIG. 59L). Representative results are shown. FIG. 59M. Percent of E-cadherin/FSP1 double positive tubule was assessed by counting the number of double-labeled tubules, 500 tubules per slide, 5 slides per experimental group. Data are expressed as mean±s.e.m. in the graph.
NTN is induced in C57BL6 mice by pre-immunizing with a subcutaneous injection of normal sheep IgG (200 μg) in complete Freund's adjuvant (day 1) followed by intravenous injection of nephrotoxic serum injection (50 μl, from day 5 to day 7). Mice were sacrificed at 1, 3, 6, 9 weeks after induction of NTN. Total RNA was isolated from the kidney by Trizol/Invitrogen PureLink RNA Mini Kit for RNA extraction. Ten nanogram of total RNA was used for generating complementary cDNA using the TaqMan One-Step RT-PCR Master Mix (Applied Biosystems, Foster City, Calif.). Quantitative PCR was performed to analyze the gene expression profile of BMP7, BMP receptors Alk2, Alk-3, Alk6 and BMPR II, and to BMP-binding proteins chordin, criml, fibrillinl, follistatin, KCP, USAG1, gremlin and noggin are analyzed (Table: Primer Sequences (below)) using ABIprism 7000 (Applied Biosystems).
NTN is induced in CD1 mice by the method described above. Six weeks after NTN induction, THR-123 (p.o. 5 mg/Kg/day) are started until 9 weeks. Mice are sacrificed at week 1, week 3, week 6 and week 9.
For the analysis of glomerulosclerosis, 20 glomeruli per each mouse were randomly picked and each glomerulus was evaluated according to the following scale: no sclerosis 0, 0 to ¼ of a glomerular surface area was sclerosed 1, ¼ to ½ was sclerosed 2, ½ to ¾ was sclerosed 3 and more than ¾ was sclerosed or with crescent 4. A glomerulosclerosis score was calculated as an arithmetic mean of these numbers for each mouse. The glomerulosclerosis scores from all mice were arbitrarily divided into 4 groups; that is no disease, mild, moderate and severe. The percentage of mice with these 4 groups was calculated.
For tubular atrophy score, ten 200× visual fields were randomly selected for each slide and tubular atrophy was assessed according to the following scale: no atrophy 0, 0 to ¼ of a visual field was occupied by atrophied tubules 1, ¼ to ½ 2, ½ to ¾ 3 and more than ¾ 4. A tubular atrophy score was then calculated as an arithmetic mean of these numbers per each mouse. The tubular atrophy scores from all mice were arbitrarily divided into 4 groups; that is no disease, mild, moderate and severe. The percentage of mice with these 4 groups was calculated and shown on the graph.
For the analysis of interstitial fibrosis, ten 200× visual fields were also selected randomly for each Masson trichrome stained kidney section and interstitial fibrosis was evaluated according to the following scale: no fibrosis 0, 0 to ¼ of a visual field was affected by interstitial fibrosis 1, ¼ to ½ 2, ½ to ¾ 3 and more than ¾ 4. […]

(H)-CYFDDSSNVLCKKYRS-(OH) (H-CYFDDSSNVLCKKYRS-OH; disulfide 1-11; SMILES CC(C)C[C@@H]1NC(=O)[C@H](C(C)C)NC(=O)[C@H](CC(N)=O)NC(=O)[C@H](CO)NC(=O)[C@H](CO)NC(=O)[C@H](CC(=O)O)NC(=O)[C@H](CC(=O)O)NC(=O)[C@H](Cc2ccccc2)NC(=O)[C@H](Cc2ccc(O)cc2)NC(=O)[C@@H](N)CSSC[C@@H](C(=O)N[C@@H](CCCCN)C(=O)N[C@@H](CCCCN)C(=O)N[C@@H](Cc2ccc(O)cc2)C(=O)N[C@@H](CCCNC(=N)N)C(=O)N[C@@H](CO)C(=O)O)NC1=O) [SEQ ID NO: 1]
blood urea nitrogen level ([1]; THR-123 p.o. 5 mg/Kg/day): significantly improved blood urea nitrogen level
tubular atrophy and interstitial fibrosis ([1]; THR-123 p.o. 5 mg/Kg/day): significantly inhibited tubular atrophy and interstitial fibrosis
glomerular abnormalities ([1]; THR-123 p.o. 5 mg/Kg/day, 8 to 16 weeks of age): did not alter glomerular abnormalities
acquisition of an EMT program ([1]; mouse, in vivo): inhibited such acquisition of an EMT program
macrophage infiltration ([1]; mouse, in vivo): inhibited macrophage infiltration
phospho-smad1/5 accumulation ([1]; mouse, in vivo): increased accumulation of phospho-smad1/5
glomerular lesion (sclerosis), tubular atrophy and fibrosis ([2]; THR-123 p.o. 5 mg/Kg/day from week 6 to 9): improved glomerular lesion (sclerosis) and tubular atrophy and fibrosis
Mac-1 positive macrophage accumulation ([2]; week 6 to 9 treatment): inhibited accumulation of macrophage
blood urea nitrogen ([2]; week 6 to 9 treatment): decreased
cells exhibiting an EMT program (FSP-1 and E-cadherin positive) ([2]; week 6 to 9 treatment): significantly decreased the number of cells exhibiting an EMT program
expression of fibronectin and type I collagen ([2]; week 6 to 9 treatment): decreased expression of matrix components such as fibronectin and type I collagen
phospho-smad1/5 accumulation ([2]; week 6 to 9 treatment): increased accumulation of phospho-Smad1/5
